Seven compounds from patent US10513623B2, “Aqueous ink, ink cartridge and image recording method” (CANON KABUSHIKI KAISHA, priority 2017, dated 2019) can be followed below.

The nature of data set [1]: Aqueous solubility of solvent A at 20° C. Format: physicochemical. Conditions: for Aqueous solubility: 20° C.
Data set [2] is described as follows: Log distribution coefficient of solvent A. Format: physicochemical.

The compound `OCCc1ccccc1` [Phenethyl alcohol] showed an Aqueous solubility in data set [1] of 2.2 % by mass.

In the case of `CC(O)Cc1ccccc1` (centres unmarked) [1-Phenyl-2-propanol], the Log distribution coefficient in data set [2] is given as 1.71. In data set [1], the Aqueous solubility is recorded as 0.58 % by mass.

Compound `OCCOc1ccccc1` [2-Phenoxyethanol] came in with a Log distribution coefficient in data set [2] of 1.16. Besides, the Aqueous solubility in data set [1] was 2.67 % by mass. For the same compound, the “aqueous solubility of the solvent A” value in data set [1] (solvent A of ink 1, rounded value) amounted to 2.7%.

In the case of `CC(O)COc1ccccc1` (centres unmarked) [1-Phenoxy-2-propanol], the Log distribution coefficient in data set [2] is 1.51. Also, in data set [1], the Aqueous solubility is 1.1 % by mass.

On to `OCc1ccccc1` [Benzyl alcohol], for which the Log distribution coefficient in data set [2] came to 1.03. Besides, the Aqueous solubility in data set [1] is 4.29 % by mass.

For the compound `OCCCCc1ccccc1` [4-Phenyl-1-butanol], in data set [2], the Log distribution coefficient came out at 2.4. The compound also came in with an Aqueous solubility in data set [1] of 0.1 % by mass.

As for `OCCCc1ccccc1` [3-Phenyl-1-propanol], in data set [2], the Log distribution coefficient was determined as 1.88. Besides, the Aqueous solubility in data set [1] was found to be 0.568 % by mass.
